Earlier results, collected in patent publication US11667640B2, “Mitoketoscins: mitochondrial-based therapeutics targeting ketone metabolism in cancer cells” (LUNELLA BIOTECH, INC., priority 2017, dated 2023).

Target: T1, ACAT1 (Homo sapiens, UniProt P24752)
T1 sequence (P24752 34-427): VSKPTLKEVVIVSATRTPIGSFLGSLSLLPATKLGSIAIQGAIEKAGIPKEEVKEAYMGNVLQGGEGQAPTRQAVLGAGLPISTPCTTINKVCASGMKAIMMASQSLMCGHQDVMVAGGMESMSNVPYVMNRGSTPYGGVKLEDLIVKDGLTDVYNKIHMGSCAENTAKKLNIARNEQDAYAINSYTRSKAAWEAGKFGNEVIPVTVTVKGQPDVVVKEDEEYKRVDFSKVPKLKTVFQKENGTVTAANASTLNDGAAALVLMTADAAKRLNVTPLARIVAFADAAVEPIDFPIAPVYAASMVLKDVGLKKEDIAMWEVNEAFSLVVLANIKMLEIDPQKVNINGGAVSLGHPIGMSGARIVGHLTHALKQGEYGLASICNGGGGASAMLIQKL
Conditions: Garcia-Bermudez et al, Mol Cell 2016

COC(=O)C1=CCCN(C)C1 [Arecoline]
ACAT1 inhibition: potential ACAT1 inhibitor
